# Patent US9632088B2, “Methods and compositions for gamma-secretase assay” (MEMORIAL SLOAN-KETTERING CANCER CENTER, priority 2010, dated 2017)
# Legend:
# γ-secretase [1] = biological target: T1, γ-secretase (Homo sapiens, UniProt P49768); assay: Cell-based Notch cleavage assay, immunostaining with SM320, HEK293 cells transfected with N1-ΔE; settings: 1 μM inhibitor, 48 hours
# T1 construct: endogenous in cells; host or cells: HEK293 cells transiently transfected with myc-tagged N1-ΔE (substrate only)
# Procedure: HEK293 cells were seeded in a 4-well chamber slide (Lab-tek) and transfected with N1-ΔE as in the preceding paragraph, using Fugene 6 transfection reagents (Roche Applied Science, Mannheim, Germany). Transfected cells were then treated with either DMSO at a 1% final concentration or 1 μM Compound E.
# After 48 hours of treatment, the cells were washed with PBS, fixed with cold methanol and permeabilized with 0.25% Tween-20. SM320 and anti-myc antibodies were added to detect NICD and full length N1-ΔE, respectively. Alexa Fluor-488 (Invitrogen, San Diego, Calif.) conjugated anti-rabbit and Alexa Fluor-594 (Invitrogen) conjugated anti-mouse antibodies were used as corresponding secondary antibodies. 4′,6-diamidino-2-phenylindole (DAPI) was used to stain cell nuclei. Finally, fluorescent images were captured with a Leica TCS Sp2 AOBS laser scanning confocal microscope (Memorial Sloan-Kettering Cancer Center Molecular Cytology Core Facility). Alternatively, REK 293 cells overexpressing N1-ΔE were treated with DMSO or Compound E, and were then collected through centrifugation and embedded in paraffin. The cell pellets were sliced and mounted on glass slides. […]
# SM320 was further characterized using immunostaining analysis. […] Using confocal microscopy, it was shown that N1-ΔE protein, as detected by anti-myc antibody, is expressed in cells transfected with the construct (FIG. 6B, panel 2). […]
# γ-secretase [2] = biological target: T1, γ-secretase; assay: 1536-well format ALPHA-based γ-secretase assay, control validation; assay type: biochemical; settings: low control: 250 nM Compound E, 1% DMSO, full 1536-well plate
# Procedure: Based on the 384-well assay format described above, to the assay was miniaturized to a 1536-well format for automated high-throughput drug screening. Concentrations of SM320, protein A conjugated acceptor beads and streptavidin conjugated donor beads were titrated to minimize reagent usage. […] The assay was validated by comparing the high and low control signals from full 1536-well plates. The high controls contained 1% final DMSO concentration (v/v), while the low controls contains 250 nM of Compound E also at 1% final DMSO concentration (v/v).
# [3] = biological target: T2, WT PS1 NTF (γ-secretase active site) (Homo sapiens, UniProt P49768); assay: Photolabeling of PS1 NTF, N2a wild-type PS1 membrane; assay type: binding, murine; settings: probes 10 nM, 0.25% CHAPSO, normalized to JC8, excess L458 as competitor
# T2 construct: total membrane
# Procedure: (§1) Total cell membrane was pre-incubated in the presence of DMSO or 1 μM L458 in PIPES buffer containing 0.25% CHAPSO at 37° C. for 30 minutes. Then, photolabeling probes (JC8, L646 or GY4) (Li et al., 2000, Nature, 405:689-694, Chun et al., 2004, J Org. Chem., 69:7344-7347, Yang et al., 2009, Bioorg Med Chem. Lett., 19:922-925) at 10 nM were added and incubated for an additional 1 hour at 37° C. The reaction mixtures were irradiated at 350 nm for 45 minutes and solubilize with RIPA buffer. Biotinylated proteins in the soluble fraction were captured by Streptavidin resin (Pierce) overnight at 4° C. Bound proteins were eluted by boiling with SDS sample buffer and analyzed by western blotting with anti-PS1 NTF antibodies.
# (§2) L646, GY4 and JC8, which photolabel the S2, S1, and S1′ subsites within the active site of PS1, respectively, were used for this study (FIG. 10b). Membranes isolated from N2a cells stably expressing wild-type (WT), M146L, or E280A PS1 were photolabeled with JC8, GY4 or L646 in the presence of 0.25% CHAPSO. […] After […] irradiation, biotinylated proteins were isolated with streptavidin beads and analyzed by western blotting with anti-PS1 NTF antibodies. […] To eliminate the effect of various amounts of γ-secretase existing in different cell lines, we normalized each probe with JC8 labeling in the same cell lines.
# [4] = biological target: T3, M146L PS1 NTF (γ-secretase active site) (Homo sapiens, UniProt P49768, M146L); assay: Photolabeling of PS1 NTF, N2a M146L PS1 membrane; assay type: binding, murine; settings: probes 10 nM, 0.25% CHAPSO, normalized to JC8, excess L458 as competitor
# T3 construct: total membrane
# Procedure: as §1, §2
# [5] = biological target: T4, E280A PS1 NTF (γ-secretase active site) (Homo sapiens, UniProt P49768, E280A); assay: Photolabeling of PS1 NTF, N2a E280A PS1 membrane; assay type: binding, murine; settings: probes 10 nM, 0.25% CHAPSO, normalized to JC8, excess L458 as competitor
# T4 construct: total membrane
# Procedure: as §1, §2
Photolabeling of PS1 NTF (western blot) [3],Photolabeling of PS1 NTF (western blot) [4],Photolabeling of PS1 NTF (western blot) [5],SMILES,detection of NICD by SM320 immunostaining (γ-secretase [1]),Average (ALPHA signal) (γ-secretase [2])
,,,CC(NC(=O)Cc1cc(F)cc(F)c1)C(=O)NC1N=C(c2ccccc2)c2ccccc2N(C)C1=O (stereo not drawn) [Compound E],not in cells treated with Compound E,319
completely prevented labeling,completely prevented labeling,completely prevented labeling,CC(C)C[C@H](NC(=O)[C@H](Cc1ccccc1)C[C@@H](O)[C@H](Cc1ccccc1)NC(=O)OC(C)(C)C)C(=O)N[C@@H](Cc1ccccc1)C(N)=O [L458],No spots of any color are observed,
